According to US6827926B2, “Metallotetrapyrrolic photosensitizing agents for use in photodynamic therapy” (Miravant Pharmaceuticals, Inc., priority 2001, dated 2004):
Where two headings read alike, the source gives them in different places. Blank lines part the entries; values can stand above or below the molecule they belong to.

Key:
[1] = tested on: V79 (Chinese Hamster Lung Fibroblasts) cells; test: In vitro cytotoxicity assay (light EC50, Alamar blue); format: cell-based
Protocol: The in vitro biological evaluation of photosensitizers for their ability to photosensitize cells was performed using standard procedures. Using 5% FBS/DMEM phenol-free media, wells (180 μl/well) were plated with 5×10^4 V79 (Chinese Hamster Lung Fibroblasts) cells/ml into two 96 well plates. Plate 1 was light-treated and plate 2 served as a control. The plates were Incubated at 37° C., 5% CO2 for 3-5 hours. Standard solutions of the photosensitizers were dissolved in pre-filtered Dimethyl Sulfoxide (DMSO). Drug was diluted in 5% FBS DMEM phenol free medium. Final drug concentrations for light and dark experiments were 0.01, 0.1, 1.0, 3.0 and 5.0 μM. Twenty microliters of each concentration were added to six replicate wells to the light and dark plate. The plates were wrapped in aluminum foil to avoid photoactivation and mixed in a gyratory shaker for approximately 2 minutes. Both plates were incubated for 24 hours at 37° C., 5% CO2. After a 24 hour incubation, drug-containing media was aspirated from the plates. Each well was rinsed with 180 μl Hepes buffer salt solution (HBSS) then aspirated to remove the HBSS. 180 μl of fresh media were added (5% FBS/DMEM phenol-free) to each well. […] Plate 2 was not light treated. Immediately after light treatment, 20 μl Alamar blue was added to each well in plate 1. Alamar blue was added to plate 2 immediately after fresh media was added. The plates were mixed on a gyratory shaker for 5 min.
Both plates were incubated under dark conditions for 24 hours at 37° C., 5% CO2. After 24 hour incubation, the plates were read on a plate reader spectrophotometer (Spectra Max 250) at wavelengths 570 and 600 nm. and the percentage of cell survival recorded.

[2] = tested on: normal skin of CD Hairless male rats; format: in vivo, rat
Text: We tested metallo- and metal-free tetrapyrroles systemically (see following section) for normal skin response in relation to the pharmacodynamic distribution of the photosensitizers in CD hairless rats. The skin of CD hairless rats are poorly developed, often referred to as hyperkeratotic, with various sized cystic hair follicles containing concentric lamellar accumulations of keratinaceous material, which are often associated with enlarged sebaceous glands. It quickly became apparent that gallium tetrapyrroles induced a marked clearing of the hyperkeratotic lesions in the treatment areas on the hairless rats. In fact, this clearing could be induced without necrosis of the skin. No other metallotetrapyrrole type produced such effects. This observation led us to assess the metallotetrapyrrolic compounds for skin restructuring effects both topically and systemically and for their ability to reduce hair growth in the following animal models.
Photosensitizer normal skin response as well as skin healing response, was evaluated using CD Hairless male rats. Photosensitizers were administered in an liposomal egg yolk phospholipid formulation at 1, 1.5 and 2 μmol/kg body weight formulation per dose group as a single bolus intravenous injection given through a marginal tail vein using a 27 gauge needle and a 1 cc tuberculin syringe. Normal skin responses were evaluated by irradiating several spots on the skin of the rat with a 532 nm laser (150 mW/cm^2, 150J, 1 cm diameter) at 1, 6, 24, 48, and 96 hrs post injection. Normal skin responses were evaluated and documented. The time at which the last spot is observed at the concentration injected is reported in the far right hand column in Tables 3, 4, 5 and 6. Skin samples were taken for histological evaluation at days 1, 10, 20 and 22 post light treatment. Rats were housed under normal lighting and all study procedures involving the test article were conducted under light filtered through blue and green Roscolox light filters to prevent photoactivation or degradation of the drug.

[3] = tested on: normal uninjured rat carotid arteries (medial and adventitial cell populations); test: In vivo rat carotid artery acellularity after PDT; design: species or system Sprague Dawley rats; details: for Max % rat Artery Accelularity: Table 3, 50 J/cm^2, 3 days post treatment; for Max % Rat Artery Accelularity: Table 4; for Max % Rat Artery Acceluarity: Table 5
Protocol: The acute effects of metallated photosensitizers, in response to light activation, to cause depletion of cell populations in the medial and adventitial layers of vessels was measured in normal uninjured rat carotid arteries. […] Shortly before the light treatment, the rats were anaesthetized with 3.5% isoflurane (Abbott Laboratories, IL, USA) and the femoral region of the right leg was shaved and cleaned. […] A direct arteriotomy was performed and a light balloon catheter ([…] Medical Technologies, Inc) was introduced into the vessel and advanced retrogradely into a non-manipulated region of the left common carotid artery via the abdominal aorta. […] After light treatment and removal of the catheter, the right femoral artery was tied off and the skin wound was closed. Rats were sacrificed three days post treatment as this corresponds to the known peak time that vascular cells, e.g., VSMC and myofibroblasts, proliferate and migrate in response to an injury. The area spanning both left and right carotid arteries and surrounding tissue was harvested, fixed, embedded in paraffin and sectioned. The tissues were stained with Hematoxylin and Eosin (Fisher Scientific, PA) and examined by light microscopy to histologically assess the cell population density in the medial and adventitial layers of the PDT-treated vessel wall. […] Metallo azaporphyrins with Ga, Zn, Al, Sn were excited at 575 nm, while Pt azaporphyrins were excited at 532 nm.

[4] = Table 3 porphyrins, 24 h drug incubation, 532 nm, 1.25 J/cm^2, read-out: In Vitro EC50 Light
[5] = Table 4 azaporphyrins, 575 nm (Pt azaporphyrins 532 nm), 1.25 J/cm^2, read-out: In Vitro EC(50)
[6] = drug dose 1 μMol, 575 nm (Pt 532 nm)
[7] = Table 3, time of last skin spot observed post injection, 1 μmol, 532 nm laser
[8] = Table 5 plant derived gallium porphyrins, light, read-out: In Vitro EC(50)

Normal skin Response (1 μmol) ([2]; rat, in vivo): 48 h
Molecule: CCC1=C(CC)C2=Nc3c(CC)c(CC)c4[n]3[In]([Cl])[n]3c(c(C)c(CCC(=O)NC)c3=CC3=NC(=C4)C(C)=C3CCC(=O)NC)=CC1=N2 [Example 91, Indium Chloride 7,8,12,13-tetraethyl-12,17-dimethyl-10-azaporphyrin-2,18-di(propionic acid methyl amide)]
EC50 [1, 5]: 0.07 µM
Max % Rat Artery Accelularity [3, 6]: 50%

Normal skin Response (1 μmol) ([2]; rat, in vivo): 6 h
Molecule: CCC1=C(C)C2=Cc3c(CC)c(C)c4[n]3[Ga-2]35([Cl])[n]6c(c(C)c(C(=O)OC)c6=CC6=[N+]3C(=C4)C(C)=C6CCC(=O)NC)=CC1=[N+]25 [M=Ga R1=CONHMe R2=Et R3=Et R4=CO2Me R5=H]
EC50 [1, 8]: 0.42 µM
Max % Rat Artery Acceluarity ([3]; drug dose 1 μMol): 65%

Normal skin Response (1 μmol) ([2]; rat, in vivo): 24 h
Molecule: C=CC1=C(C)C2=Nc3c(C=C)c(C)c4[n]3[Ga-2]35([Cl])[n]6c(c(C)c(CCC(=O)NC)c6=CC6=[N+]3C(=C4)C(C)=C6CCC(=O)NC)=CC1=[N+]25 [M=Ga R1,R3=Me R2,R4=V R=CONHMe]
EC50 [1, 5]: 0.5 µM
Max % Rat Artery Accelularity [3, 6]: 50%

Normal skin Response (1 μmol) ([2]; rat, in vivo): 48 h
Molecule: CCC1=C(C)C2=Cc3c(CC)c(C)c4[n]3[Ga-2]35([Cl])[n]6c(c(C)c(CO)c6=CC6=[N+]3C(=C4)C(C)=C6CCCO)=CC1=[N+]25 [M=Ga R1=CH2OH R2=Et R3=Et R4=CH2OH R5=H]
EC50 [1, 8]: 0.41 µM
Max % Rat Artery Acceluarity ([3]; drug dose 1 μMol): 70%

Normal skin Response (1 μmol) ([2]; rat, in vivo): 48 h
Molecule: Aluminum Chloride 7,8,12,13-tetraethyl-12,17-dimethyl-10-azaporphyrin-2,18-di(propionic acid methyl ester) [Example 84]
EC50 [1, 5]: 0.04 µM
Max % Rat Artery Accelularity [3, 6]: 50%

Normal skin Response (1 μmol) in hrs ([2]; rat, in vivo): None
Molecule: CCC1=C(C)C2=[N+]3C1=Cc1c(C)c(CC)c4[n]1[Ga-2]31([OH])[n]3c(c(C)c(CCC(=O)NCCN(C)C)c3=CC3=[N+]1C(=C4)C(C)=C3CCC(=O)NCCN(C)C)=C2 [Example 70, Gallium Hydroxy Mesoporphyrin di-(N,N-dimethylaminoethylamide)]
EC50 [1, 4]: 1.7 µM

Normal skin Response (1 μmol) ([2]; rat, in vivo): 96 h
Molecule: CCC1=C(CC)C2=Nc3c(CC)c(CC)c4[n]3[In]([Cl])[n]3c(c(C)c(CCCOC)c3=CC3=NC(=C4)C(C)=C3CCCOC)=CC1=N2 [Example 107, Indium Chloride 7,8,12,13-tetraethyl-12,17-dimethyl-10-azaporphyrin-2,18-di(3-methoxypropyl)]
EC50 [1, 5]: 0.05 µM

Normal skin Response (1 μmol) in hrs ([2]; rat, in vivo): None
normal skin response at the drug doses used ([2]; rat, in vivo): no observed normal skin response
Molecule: CCC1=C(CC)C2=[N+]3C1=Nc1c(CC)c(CC)c4[n]1[Ga-2]31([OH])[n]3c(c(C)c(CCC(=O)[O-])c3=CC3=[N+]1C(=C4)C(C)=C3CCC(=O)[O-])=C2.[Na+].[Na+] [Example 88, Gallium Hydroxy 7,8,12,13-tetraethyl-12,17-dimethyl-10-azaporphyrin-2,18-di(propionic acid Sodium Salt)]
acellularity following PDT of rat arteries at longer treatment times post injection ([3]; 16, 24 hrs post injection): significant acellularity
accelularity in rat artery at a four hour treatment point ([3]; 4 hrs post administration): 10%
Max % Rat Artery Accelularity ([3]; drug dose 4 μMol, 4 hrs): 10 (4 hrs) %
Max % Rat Artery Accelularity ([3]; drug dose 4 μMol, 24 hrs): 100 (24 hrs) %

Normal skin Response (1 μmol) ([2]; rat, in vivo): 96 h
Molecule: CCC1=C(C)c2cc3[nH]c(cc4nc(cc5[nH]c(cc1n2)c(C)c5CCC(=O)NCCN(C)C)C(CCC(=O)NCCN(C)C)=C4C)c(C)c3CC.[Pt] [Example 71, Platinum Mesoporphyrin di(N,N-dimethylaminoethylamide)]
EC50 [1, 4]: 0.2 µM

Further lines, the molecule ahead of its results:

Molecule: CCOC(=O)CCCCC1=C(C)c2cc3[n-]c(cc4nc(cc5[n-]c(cc1n2)c(CCCCC(=O)OCC)c5C)C(C)=C4CC)c(C)c3CC.[Cl-].[In+3] [Example 52, Indium Chloride 8,13-diethyl-3,7,12,17-tetramethylporphyrin-2,18-di(pentanoic acid ethyl ester)]
EC50 [1, 4]: 0.05 µM
Normal skin Response (1 μmol) ([2]; rat, in vivo): 48 h
Max % rat Artery Accelularity ([3]; drug dose 1 μMol): 75%

Molecule: Aluminum Chloride Mesoporphyrin Dimethyl Ester [Example 30]
EC50 [1, 4]: 3 µM
Normal skin Response (1 μmol) ([2]; rat, in vivo): 24 h
Max % rat Artery Accelularity ([3]; drug dose 1 μMol): 0%

Molecule: CCC1=C(C)c2cc3[n-]c(cc4nc(cc5[n-]c(cc1n2)c(C)c5CC)C(C)=C4CCCN1CCCC1)c(CCCN1CCCC1)c3C.[Pt+2] [Example 77, Platinum 8,13-diethyl-3,7,12,17-tetramethylporphyrin-2,18-di(3-(N-pyrrolidino)propyl)]
EC50 [1, 4]: 0.1 µM
Normal skin Response (1 μmol) [2, 7]: 96 h
Max % rat Artery Accelularity ([3]; drug dose 1 μMol): 25%

Molecule: CCOP(=O)(CCCC1=C(C)c2cc3cc(C)c(cc4nc(cc5[n-]c(cc1n2)c(CCCP(=O)(OCC)OCC)c5C)C(C)=C4)[n-]3)OCC.[Cl-].[In+3] [Example 81, Indium Chloride 3,7,12,17-tetramethylporphyrin-2,18-di((3′-diethylphosphono)propyl)]
EC50 [1, 4]: 0.4 µM
Normal skin Response (1 μmol) [2, 7]: 48 h
photodynamic activity in vivo ([2]; text b240): photodynamically active in vivo

Molecule: CCC1=C(C)c2cc3[n-]c(cc4nc(cc5[n-]c(cc1n2)c(C)c5CCC(=O)NCCCO)C(CCC(=O)NCCCO)=C4C)c(C)c3CC.[Cl-].[Ga+3] [Example 66, Gallium Chloride Mesoporphyrin di(3-hydroxypropylamide)]
EC50 [1, 4]: 0.2 µM
Normal skin Response (1 μmol) in hrs ([2]; rat, in vivo): None

Molecule: CCC1=C(C)c2cc3[n-]c(cc4nc(cc5[n-]c(cc1n2)c(C)c5CC)C(C)=C4CCCN1CCCC1)c(CCCN1CCCC1)c3C.[In+3].[OH-] [Example 76, Indium hydroxy 8,13-diethyl-3,7,12,17-tetramethylporphyrin-2,18-di(3-(N-pyrrolidino)propyl)]
EC50 [1, 4]: 0.02 µM
Normal skin Response (1 μmol) [2, 7]: 96 h

Molecule: CCC1=C(C)C2=NC1=Cc1c(C)c(CC)c3[n]1[Pt][n]1c(c(C)c(CCCC(=O)OC)c1=CC1=NC(=C3)C(C)=C1CCCC(=O)OC)=C2 [Example 47, Platinum 8,13-diethyl-3,7,12,17-tetramethylporphyrin-2,18-di(butanoic acid methyl ester)]
EC50 [1, 4]: 0.2 µM
Normal skin Response (1 μmol) [2, 7]: 48 h

Molecule: CCC1=C(C)c2cc3[n-]c(cc4nc(cc5[n-]c(cc1n2)c(C)c5CCC(=O)OC)C(CCC(=O)OC)=C4C)c(C)c3CC.[Zn+2] [Example 33, Zinc Mesoporphyrin Dimethyl Ester]
Normal skin Response (1 μmol) ([2]; rat, in vivo): 24 h
Max % rat Artery Accelularity ([3]; drug dose 1 μMol): 0%

Molecule: COC(=O)CCC1=C(C)c2cc3[n-]c(cc4nc(cc5[n-]c(cc1n2)c(CCC(=O)OC)c5C)C(C)=C4C=CCN(C)C)c(C)c3C=CCN(C)C.[Ga+3].[OH-] [Example 43, Gallium Hydroxy 3,8-Bis-(N,N-dimethylaminoprop-2-en-3-yl)deuteroporphyrin dimethyl ester]
EC50 [1, 4]: 2.45 µM
Normal skin Response (1 μmol) in hrs ([2]; rat, in vivo): None
